In US11993640B2, “Treating inflammatory lung disease” (United States Government as represented by the Department …, priority 2019, dated 2024):
Non-standard residues stand in square brackets, D forms with d. Residues, ends and D or L forms follow the SMILES beside them. *: point of attachment. Phenylacetyl(2,3,4,5,6-F5) = O=C(Cc1c(F)c(F)c(F)c(F)c1F)*; Phe(F5) = N[C@@H](Cc1c(F)c(F)c(F)c(F)c1F)C(=O)O; hArg = N=C(N)NCCCC[C@H](N)C(=O)O; 12Ado = NCCCCCCCCCCCC(=O)O; Nle = CCCC[C@H](N)C(=O)O; Orn = NCCC[C@H](N)C(=O)O; Abu = CC[C@H](N)C(=O)O; PhAc = O=C(Cc1ccccc1)*

Key:
[1] = system: RT4 cells; assay: In vitro cell viability, urothelial cancer RT4; type: cell-based, human; details: 5 μM, 72 h; relative to MIA602 = 1; Table 3A
Description: (§1) The inhibitory effects of the various synthesized GHRH antagonists were tested in cell proliferation assays in various human cancer cell lines including stomach cancer (KATOIII, N87), colon cancer (HT-29), urothelial cancer (J82, RT4), pancreatic cancer (PANC-1, CFPAC-1), prostatic cancer (PC3), breast cancer (MX-1, HCC1806), ovarian cancer (SK-OV-3, OVCAR-3) and lung cancer (HCC827, H460).
(§2) Cell culture. Human cancer cell lines including pancreatic (PANC-1 and CFPAC-1), lung (HCC827 and H460), stomach (NCI-N87 and KATOIII), urothelial (J82, RT4), prostatic (PC3), breast (MX-1 and HCC 1806), colorectal (HT-29), and ovarian (SK-OV-3 and OVCAR-3) were obtained from the American Type Culture Collection (ATCC) and cultured at 37° C. in a humidified 95% air/5% CO2 atmosphere in the medium recommended by ATCC.
(§3) In vitro cell viability. Cell viability was analyzed as follows: cancer cells including pancreatic (PANC-1 and CFPAC-1), lung (HCC827 and H460), stomach (NCI-N87 and KATOIII), urothelial (J82, RT4), prostatic (PC3) and breast (MX-1 and HCC 1806), colorectal (HT-29) and ovarian (SK-OV-3 and OVCAR-3) were grown on 96 well plates to ˜60% confluence, the cells were starved for 24 h in culture medium containing 0.5% FBS. Cells were then treated with GHRH antagonists MIA602 AVR compounds at concentrations of 1, 2.5 or 5 μM, or vehicle (0.1% DMSO) in quintuplicates for 72 hours. The medium was replaced every 48 hours. Cell viability was measured using CellTiter 96 aqueous one solution kit (Promega). Inhibitory effects of tested AVR compounds in comparison to that of MIA602 are presented as inhibitory potency.
Inhibitory effects of selected AVR compounds in comparison to that of MIA602 are presented as inhibitory potency (e.g., percentage of inhibition). […] The cell lines tested including lung cancer HCC827 (FIG. 2A), pancreatic cancer CFPAC-1 (FIG. 2B), stomach cancer N87 (FIG. 2C), colon cancer HT-29 (FIG. 2D), breast cancers MX-1 and HCC1806 (FIGS. 2E, F). […]

[2] = system: SK-OV-3 cells; assay: In vitro cell viability, ovarian cancer SK-OV-3; type: cell-based, human; details: * at concentration of 2 μM for 72 h; Table 3B
Description: as §1, §2
(§4) In vitro cell viability. Cell viability was analyzed as follows: cancer cells including pancreatic (PANC-1 and CFPAC-1), lung (HCC827 and H460), stomach (NCI-N87 and KATOIII), urothelial (J82, RT4), prostatic (PC3) and breast (MX-1 and HCC 1806), colorectal (HT-29) and ovarian (SK-OV-3 and OVCAR-3) were grown on 96 well plates to ˜60% confluence, the cells were starved for 24 h in culture medium containing 0.5% FBS. […] Cell viability was measured using CellTiter 96 aqueous one solution kit (Promega). […]

[3] = system: HT-29 cells; assay: In vitro cell viability, colon cancer HT-29; type: cell-based, human; details: 5 μM, 72 h; Table 3B
Description: as §1, §2, §4

[4] = system: MX-1 cells; assay: In vitro cell viability, breast cancer MX-1; type: cell-based, human; details: 5 μM, 72 h
Description: as §1, §2, §3
Inhibitory effects of selected AVR compounds in comparison to that of MIA602 are presented as inhibitory potency (e.g., percentage of inhibition). […] The cell lines tested including lung cancer HCC827 (FIG. 2A), pancreatic cancer CFPAC-1 (FIG. 2B), stomach cancer N87 (FIG. 2C), colon cancer HT-29 (FIG. 2D), breast cancers MX-1 and HCC1806 (FIGS. 2E, F). Based on the results of cell proliferation assay after cancer cells were treated with antagonist at concentration of 5 μM for 72H, the relative inhibitory potency of AVR antagonists in comparison to MIA-602 is summarized in Table 3 A and B. Over 60 AVR compounds were tested in 12 cancer cell lines.
Based on the results of cell proliferation assay after cancer cells were treated with antagonist at concentration of 5 µM for 72H, * at concentration of 2 µM for 72 H.

[5] = system: C57Bl/6J mice treated with bleomycin; assay: Bleomycin lung injury model, micro-CT of lungs; type: in vivo, mouse; details: bleomycin plus MIA-602
Description: Experimental animals. 8-week old C57Bl/6J male mice (The Jackson Laboratory, Bar Harbor, ME) were used in these experiments. Mice weighed about 26 grams at the start. Mice were randomly allocated to the experimental groups and housed in identical filter top cages in a ventilated rack. Mice were exposed to a 12-hour light/dark cycle and had free access to standard laboratory chow and water.
Bleomycin and GHRH-R antagonist treatment. Mice were treated with 0.8 units of bleomycin (Bleomycin for Injection USP, Hospira, Lake Forest, IL) intraperitoneally (IP) on days 1, 3, 7, 10, 14 and 21 (Collins S, Chan-Li Y, Oh M, Vigeland C, Limjunyawong N, Mitzner W, Powell J D, Horton M R (2016). JCI Insight 1(4):1-13). Mice (randomly assigned) were simultaneously treated subcutaneously (sc) with MIA-602 (5 μg/day) or its vehicle (100 μL/day). MIA-602 was dissolved in DMSO (ACS grade; Sigma-Aldrich) and diluted 1:500 in normal saline for daily sc injection on days 0-21.
Tissue preparations. Mice were killed by CO2 inhalation before any treatment, or on days 14 or 28 for micro-CT scans of lungs and harvesting of lung tissue (Vande Velde G, Poelmans J, De Langhe E, Hillen A, Vanoirbeek J, Himmelreich U, Lories R (2016). Dis Model Mech 9:91). […]
Micro-CT. Mice in each group were assessed by micro-CT scans (Bruker SkyScan 1176 Low Dose Micro-CT, Knotich, Belgium) of the lungs after CO2 inhalation. […]

[6] = system: rat pituitary cells; assay: Inhibition of GHRH(1-29)NH2-stimulated GH release from rat pituitary cells (ELISA); type: cell-based; details: analog 20 nM
Description: In vitro assessment of the antagonistic activity of GHRH analogs. Rats were decapitated and pituitaries were collected in pre-warmed HBSS (Hanks' Balanced Salt Solution). Tissue was then cut into small pieces and digested in HBSS medium containing 3% BSA, 50 μg/ml gentamycin and 0.5% collagenase for 50 minutes at 37° C. Cells were further dispersed by pipetting and passed through a 100 μm cell strainer with the addition of DMEM containing 50 μg/ml gentamycin, 10% horse serum and 2.5% FBS (growth medium). Cells were harvested at 475×g for 2 minutes, resuspended in fresh growth medium and seeded onto poly-D-lysine-coated 24-well plates (7 pituitaries/plate). Cells were left to recover for 4 days. Growth medium was then replaced with serum-free DMEM for 4 hours and GHRH analogs (at concentration of 20 nM) were added in DMEM containing 0.1% BSA for 30 minutes. Cells were replenished with medium containing the same concentration of the analogs and 1 nM GHRH(1-29)NH2 for 30 minutes. Medium from this step was collected, centrifuged at 800 g for 3 minutes and GH concentration was determined by ELISA (ALPCO Diagnostics, Mill Valley, CA) according to the manufacturer's instruction.

Row | SMILES | Relative inhibitory potency, Urothelial RT4 [1] | In vitro relative inhibitory potency in comparison to MIA-602, SKOV-3 [2] | In vitro relative inhibitory potency in comparison to MIA-602, HT-29 [3] | In vitro relative inhibitory potency in comparison to MIA-602, MX-1 ([4]; Table 3B) | Relative inhibitory potency, Breast MX-1 ([4]; relative to MIA602 = 1, Table 3A) | Infiltrative densities in lungs on micro-CT [5] | Inhibitory effect on the release of GH compared with MIA-602 [6]
1 | CCCC[C@H](NC(=O)[C@@H](NC(=O)[C@H](CC(=O)O)NC(=O)[C@H](CCC(N)=O)NC(=O)[C@H](CC(C)C)NC(=O)[C@H](CC(C)C)NC(=O)[C@H](CCCN)NC(=O)[C@H](Cc1c[nH]cn1)NC(=O)[C@H](C)NC(=O)[C@H](CO)NC(=O)[C@H](CC(C)C)NC(=O)[C@H](CCC(N)=O)NC(=O)[C@H](CC)NC(=O)[C@H](CC(C)C)NC(=O)[C@@H](NC(=O)[C@H](CCCN)NC(=O)[C@H](Cc1c[nH]cn1)NC(=O)[C@H](Cc1ccc(OC)cc1)NC(=O)[C@H](CCCCNC(=N)N)NC(=O)[C@H](C)NC(=O)[C@@H](NC(=O)[C@H](Cc1c(F)c(F)c(F)c(F)c1F)NC(=O)[C@@H](NC(=O)[C@H](C)NC(=O)[C@H](CC(=O)O)NC(=O)[C@@H](CCCNC(=N)N)NC(=O)[C@H](Cc1ccc(O)cc1)NC(=O)CCCCCCCCCCCNC(=O)Cc1ccccc1)[C@@H](C)CC)[C@@H](C)O)C(C)C)[C@@H](C)CC)C(=O)N[C@H](CCCNC(=N)N)C(=O)N[C@@H](CCCCNC(=N)N)C(N)=O [MIA-602, PhAC-Ada, Tyr D-Arg, Asp, Ala, Ile, 5FPhe, Thr, Ala, Har, Tyr(Me), His, Orn, Val, Leu, Abu, Gin, Leu, Ser, Ala, His, Orn, Leu, Leu, Gin, Asp, Ile, Nle, D-Arg, Har NH2, reference compound] ({PhAc-12Ado}-Y[dR]DAI[Phe(F5)]TA[hArg]Y(Me)H[Orn]VL[Abu]QLSAH[Orn]LLQDI[Nle][dR][hArg]-NH2) | 1 | 1 | 1 | 1 | 1 | less prominent infiltrative densities | 
2 | CCCC[C@H](NC(=O)[C@@H](NC(=O)[C@H](CC(=O)O)NC(=O)[C@H](CCC(N)=O)NC(=O)[C@H](CC(C)C)NC(=O)[C@H](CC(C)C)NC(=O)[C@H](CCCCN)NC(=O)[C@H](CCCNC(=N)N)NC(=O)[C@H](C)NC(=O)[C@H](CO)NC(=O)[C@H](CC(C)C)NC(=O)[C@H](CCC(N)=O)NC(=O)[C@H](CC)NC(=O)[C@H](CC(C)C)NC(=O)[C@@H](NC(=O)[C@H](CCCCN)NC(=O)[C@H](CCCNC(=N)N)NC(=O)[C@H](Cc1ccc(OC)cc1)NC(=O)[C@H](CCCCNC(=N)N)NC(=O)[C@H](C)NC(=O)[C@@H](NC(=O)[C@H](Cc1c(F)c(F)c(F)c(F)c1F)NC(=O)[C@@H](NC(=O)[C@H](C)NC(=O)[C@H](CC(=O)O)NC(=O)[C@@H](CCCNC(=N)N)NC(=O)[C@H](Cc1ccc(O)cc1)NC(=O)CCCCCCCCCCCNC(=O)Cc1c(F)c(F)c(F)c(F)c1F)[C@@H](C)CC)[C@@H](C)O)C(C)C)[C@@H](C)CC)C(=O)N[C@H](CCCNC(=N)N)C(=O)N[C@@H](CCCCNC(=N)N)C(=O)NC [AVR-235] ({Phenylacetyl(2,3,4,5,6-F5)-12Ado}-Y[dR]DAI[Phe(F5)]TA[hArg]Y(Me)RKVL[Abu]QLSARKLLQDI[Nle][dR][hArg]-NHMe) |  |  |  |  |  |  | higher inhibitory effects than MIA-602
